Data on 17 molecules can be found in ChEMBL document CHEMBL1142398, “Chemical stability of the peroxide bond enables diversified synthesis of potent tetraoxane antimalarials” (J Med Chem, 2008).

The test system of data set [1] is Plasmodium falciparum. The data set can be described thus: microbe, parasite or virus in culture. Particulars: D6.
Description: Antimalarial activity against Plasmodium falciparum D6
For data set [2], the system named is Plasmodium falciparum. Briefly: microbe, parasite or virus in culture. Conditions: W2.
Description: Antimalarial activity against Plasmodium falciparum W2
The nature of data set [3]: Metabolic stability assessed as half life in mouse liver microsomes. The format is ADME, Microsome. On the technique in general: Liver microsomes are vesicles of endoplasmic reticulum, rich in cytochrome P450 enzymes.
A short description of data set [4]: Metabolic stability assessed as half life in human liver microsomes. The class given is ADME, Microsome.
Data set [5] has as its system Plasmodium falciparum. Briefly: microbe, parasite or virus in culture. Conditions: TM91C235.
Description: Antimalarial activity against multidrug-resistant Plasmodium falciparum TM91C235
Data set [6] has as its system Plasmodium berghei. Briefly: Antimalarial activity against Plasmodium berghei KBG173 infected CD1 mice (Mus musculus) at 9.3 mg/kg/day subcutaneous dose as survival time after 3-5 days. The format is functional.
The test system of data set [7] is Plasmodium berghei. Briefly: Antimalarial activity against Plasmodium berghei KBG173 infected CD1 mice (Mus musculus) at 300 mg/kg/day subcutaneous dose as survival time after 3-5 days. The format is functional.
The subject of data set [8] is Plasmodium berghei. The data set can be described thus: Antimalarial activity against Plasmodium berghei KBG173 infected CD1 mice (Mus musculus) at 37.5 mg/kg/day subcutaneous dose as survival time after 3-5 days. The class given is functional.
In data set [9] the test system is Plasmodium berghei. The data set can be described thus: Antimalarial activity against Plasmodium berghei KBG173 infected CD1 mice (Mus musculus) at 150 mg/kg/day subcutaneous dose as survival time after 3-5 days. The format is functional.

A value given as a limit tells only on which side of the number the result lay.

With `CC(=O)O[C@H]1C[C@H]2[C@@H]([C@H](OC(C)=O)C[C@@H]3CC4(CC[C@@]32C)OOC2(CCCCC2)OO4)[C@@H]2CC[C@H]([C@H](C)CCC(=O)O)[C@@]12C`, the IC50 (as a rule, the concentration at which inhibition is half-maximal) was 0.0306 µM in the data set on Plasmodium falciparum [1] and 0.0192 µM in the data set with Plasmodium falciparum [2].

Take `CC(=O)O[C@H]1C[C@H]2[C@@H]([C@H](OC(C)=O)C[C@@H]3CC4(CC[C@@]32C)OOC2(CCCCC2)OO4)[C@@H]2CC[C@H]([C@H](C)CCCNCCN(C)C)[C@@]12C`: the half-life in data set [3] and in [4] was > 60 min in each case. For the same molecule, the 50% inhibitory concentration (IC50) in the data set with Plasmodium falciparum [1] was found to be 0.0468 µM; with Plasmodium falciparum [5] it was 0.0497 µM; in the data set on Plasmodium falciparum [2], 0.0185 µM. In addition, the results for the 90% effect concentration (IC90) with Plasmodium falciparum [1], in the data set with Plasmodium falciparum [5] and with Plasmodium falciparum [2] were 0.11 µM, 0.0881 µM and 0.0654 µM, respectively.

As for `CCCNC(=O)C1CCC2(CC1)OOC1(CCCCC1)OO2`, the half-inhibitory concentration (IC50) in the data set with Plasmodium falciparum [1] came out at 0.0193 µM; in the data set on Plasmodium falciparum [5], 0.0253 µM; in the data set on Plasmodium falciparum [2], 0.022 µM. Besides, the IC90 (commonly the concentration needed for an effect of 90%) in the data set with Plasmodium falciparum [1] was 0.0492 µM; in the data set with Plasmodium falciparum [5], 0.0539 µM; with Plasmodium falciparum [2] it was 0.0445 µM.

As to `CC(C)NCC1CCC2(CC1)OOC1(CCCCC1)OO2`, the Survival is 11.8 days in the data set on Plasmodium berghei [6], 23.2 days in the data set with Plasmodium berghei [7], 18.2 days with Plasmodium berghei [8] and 23.6 days with Plasmodium berghei [9]. The half-life (in general, the time in which the quantity being followed falls by half) was determined as 9.9 min in data set [3] and 38.7 min in data set [4]. Besides, the IC50 with Plasmodium falciparum [1] was 0.0094 µM; in the data set on Plasmodium falciparum [5], 0.00927 µM; in the data set on Plasmodium falciparum [2], 0.00754 µM. Moreover, the values for the IC90 in the data set with Plasmodium falciparum [1], in the data set with Plasmodium falciparum [5] and in the data set with Plasmodium falciparum [2] were 0.0145 µM, 0.0167 µM and 0.0229 µM, respectively.

Turning to `c1ccc(CNCC2CCC3(CC2)OOC2(CCCCC2)OO3)cc1`, the half-life amounted to 3.5 min in [3] and 42 min in data set [4]. In addition, the IC50 with Plasmodium falciparum [1] is 0.0138 µM; with Plasmodium falciparum [5], 0.0139 µM; in the data set on Plasmodium falciparum [2], 0.00819 µM. For the same molecule, the IC90 stood at 0.0345 µM in the data set with Plasmodium falciparum [1], 0.0395 µM with Plasmodium falciparum [5] and 0.0206 µM in the data set on Plasmodium falciparum [2].

Turning to `OCC1CCC2(CC1)OOC1(CCCCC1)OO2`, the results for the half-inhibitory concentration (IC50) in the data set with Plasmodium falciparum [1], with Plasmodium falciparum [5] and with Plasmodium falciparum [2] were 0.0152 µM, 0.0126 µM and 0.00654 µM, respectively. Also, the 90% effect concentration (IC90) turned out to be 0.0225 µM with Plasmodium falciparum [1], 0.0237 µM in the data set with Plasmodium falciparum [5] and 0.0116 µM in the data set on Plasmodium falciparum [2].

For `CCCNCCC[C@@H](C)[C@H]1CC[C@H]2[C@@H]3[C@H](OC(C)=O)C[C@@H]4CC5(CC[C@]4(C)[C@H]3C[C@H](OC(C)=O)[C@]12C)OOC1(CCCCC1)OO5`, the half-life in data set [3] and in data set [4] was > 60 min each time. Moreover, the IC50 in the data set with Plasmodium falciparum [1] is 0.0241 µM; with Plasmodium falciparum [5], 0.0208 µM; in the data set with Plasmodium falciparum [2], 0.0111 µM. Further, the IC90 in the data set with Plasmodium falciparum [1] is 0.0493 µM; in the data set with Plasmodium falciparum [5], 0.0739 µM; in the data set with Plasmodium falciparum [2], 0.0269 µM.

Regarding `CC(=O)O[C@H]1C[C@H]2[C@@H]([C@H](OC(C)=O)C[C@@H]3CC4(CC[C@@]32C)OOC2(CCCCC2)OO4)[C@@H]2CC[C@H]([C@H](C)CCCO)[C@@]12C`, the IC50 with Plasmodium falciparum [1] was found to be 0.0156 µM; in the data set with Plasmodium falciparum [5], 0.0181 µM; with Plasmodium falciparum [2] it was 0.00977 µM. Besides, the 90% effect concentration (IC90) is 0.0287 µM in the data set with Plasmodium falciparum [1], 0.0272 µM in the data set on Plasmodium falciparum [5] and 0.0242 µM with Plasmodium falciparum [2].

For `CC(=O)O[C@H]1C[C@H]2[C@@H]([C@H](OC(C)=O)C[C@@H]3CC4(CC[C@@]32C)OOC2(CCCCC2)OO4)[C@@H]2CC[C@H]([C@H](C)CCCN=[N+]=[N-])[C@@]12C`, the IC50 with Plasmodium falciparum [1] amounted to 0.0086 µM; in the data set on Plasmodium falciparum [5], 0.0139 µM; in the data set on Plasmodium falciparum [2], 0.0063 µM. Besides, the 90% effect concentration (IC90) in the data set with Plasmodium falciparum [1] is 0.0133 µM; in the data set with Plasmodium falciparum [5] it was 0.0206 µM; in the data set on Plasmodium falciparum [2], 0.0216 µM.

In the case of `COC(=O)C1CCC2(CC1)OOC1(CCCCC1)OO2`, the half-inhibitory concentration (IC50) in the data set with Plasmodium falciparum [1] came to 0.0292 µM; in the data set on Plasmodium falciparum [5], 0.027 µM; with Plasmodium falciparum [2] it was 0.0404 µM. Besides, the IC90 with Plasmodium falciparum [1] is 0.0839 µM; in the data set with Plasmodium falciparum [5], 0.11 µM; in the data set on Plasmodium falciparum [2] it was 0.0625 µM.

For the molecule `O=C(O)C1CCC2(CC1)OOC1(CCCCC1)OO2`, the half-inhibitory concentration (IC50) stood at 0.429 µM in the data set with Plasmodium falciparum [1], 0.411 µM with Plasmodium falciparum [5] and 0.413 µM in the data set with Plasmodium falciparum [2]. The 90% effect concentration (IC90) was determined as 0.467 µM in the data set with Plasmodium falciparum [1], 0.523 µM with Plasmodium falciparum [5] and 0.52 µM with Plasmodium falciparum [2].

With `COC(=O)CC[C@@H](C)[C@H]1CC[C@H]2[C@@H]3[C@H](OC(C)=O)C[C@@H]4CC5(CC[C@]4(C)[C@H]3C[C@H](OC(C)=O)[C@]12C)OOC1(CCCCC1)OO5`, the concentration for half-maximal inhibition (IC50) with Plasmodium falciparum [1] was 0.0215 µM; in the data set with Plasmodium falciparum [2], 0.017 µM.

As to `CC(=O)OCCC[C@@H](C)[C@H]1CC[C@H]2[C@@H]3[C@H](OC(C)=O)C[C@@H]4CC5(CC[C@]4(C)[C@H]3C[C@H](OC(C)=O)[C@]12C)OOC1(CCCCC1)OO5`, the values for the IC50 in the data set on Plasmodium falciparum [1], in the data set on Plasmodium falciparum [5] and in the data set on Plasmodium falciparum [2] were 0.0159 µM, 0.0192 µM and 0.0116 µM, respectively. Moreover, the 90% effect concentration (IC90) is 0.0284 µM with Plasmodium falciparum [1], 0.0293 µM with Plasmodium falciparum [5] and 0.0263 µM in the data set on Plasmodium falciparum [2].

With `NC(=O)C1CCC2(CC1)OOC1(CCCCC1)OO2`, the half-maximal inhibitory concentration (IC50) worked out at 0.024 µM in the data set with Plasmodium falciparum [1], 0.0272 µM in the data set with Plasmodium falciparum [5] and 0.0202 µM with Plasmodium falciparum [2]. Also, the values for the 90% effect concentration (IC90) with Plasmodium falciparum [1], in the data set with Plasmodium falciparum [5] and in the data set with Plasmodium falciparum [2] were 0.0428 µM, 0.0556 µM and 0.0404 µM, respectively.

`C[C@@H]1CC[C@H]2[C@@H](C)C(=O)O[C@@H]3O[C@@]4(C)CC[C@@H]1[C@]32OO4` [ARTEMISININ]: the IC50 was determined as 0.009 µM in the data set on Plasmodium falciparum [1], 0.013 µM in the data set on Plasmodium falciparum [5] and 0.0067 µM with Plasmodium falciparum [2]. Besides, the concentration for an effect of 90% (IC90) in the data set with Plasmodium falciparum [1] was found to be 0.0128 µM; in the data set with Plasmodium falciparum [5] it was 0.0174 µM; in the data set on Plasmodium falciparum [2], 0.0115 µM.

Regarding `CCN(CC)CCCC(C)Nc1ccnc2cc(Cl)ccc12` (configuration not stated) [CHLOROQUINE], the IC90 in the data set with Plasmodium falciparum [1] turned out to be 0.0176 µM; with Plasmodium falciparum [5] it was 0.345 µM; with Plasmodium falciparum [2] it was 1.02 µM.

For the molecule `O[C@@H](c1cc(C(F)(F)F)nc2c(C(F)(F)F)cccc12)[C@H]1CCCCN1` [MEFLOQUINE], the figures for the concentration for half-maximal inhibition (IC50) in the data set with Plasmodium falciparum [1] and in the data set with Plasmodium falciparum [5] were 0.00734 µM and 0.0225 µM, respectively. For the same molecule, the IC90 with Plasmodium falciparum [1] came to 0.0195 µM; with Plasmodium falciparum [5], 0.0501 µM; in the data set on Plasmodium falciparum [2], 0.00945 µM.
